Assay results from paper PMC6061858 (2018).

What was measured:
[1] = test system: metY 55 nt (metY SAM-V riboswitch) (RNA, riboswitch) AGGCGCAUUUGAACUGUAUUGUACGCCUUGCAUAAAGCAAAAGUACUAAAAAAGG; test: ITC; conditions: 100 mM KCl, 10 mM MgCl2, 40 mM HEPES pH 7.2, 298 K
[2] = test system: bhmT 52 nt (SAM-52) (RNA, riboswitch) GGGCAGUUGAACCAUAUUGUGCGCCCUGCAUUUGCUUAAGCACUAAAAAGGA; test: ITC; conditions: 100 mM KCl, 10 mM MgCl2, 40 mM HEPES pH 7.2, 298 K
[3] = test system: metY A50Pur (RNA, riboswitch, purine at 50 (replaces A50)) AGGCGCAUUUGAACUGUAUUGUACGCCUUGCAUAAAGCAAAAGUACUAAAAAAGG; test: ITC; conditions: 100 mM KCl, 10 mM MgCl2; 40 mM HEPES pH 7.2, 298 K
[4] = test system: bhmT A50Pur (RNA, riboswitch, purine at A50 (metY numbering; position 47 of strand)) GGGCAGUUGAACCAUAUUGUGCGCCCUGCAUUUGCUUAAGCACUAAAAAGGA; test: ITC; conditions: 100 mM KCl, 10 mM MgCl2; 40 mM HEPES pH 7.2, 298 K
[5] = test system: bhmT A50Ino (RNA, riboswitch, inosine at A50 (metY numbering; position 47 of strand)) GGGCAGUUGAACCAUAUUGUGCGCCCUGCAUUUGCUUAAGCACUAAAAAGGA; test: ITC; conditions: 100 mM KCl, 10 mM MgCl2; 40 mM HEPES pH 7.2, 298 K
[6] = test system: metY A50Inosine (RNA, riboswitch, inosine at 50 (replaces A50)) AGGCGCAUUUGAACUGUAUUGUACGCCUUGCAUAAAGCAAAAGUACUAAAAAAGG; test: ITC; conditions: 100 mM KCl, 10 mM MgCl2; 40 mM HEPES pH 7.2, 298 K; 200 µM SAM titrated into 15 µM RNA
[7] = test system: metY U47Isocytidine (RNA, riboswitch, isocytidine at 47 (replaces U47)) AGGCGCAUUUGAACUGUAUUGUACGCCUUGCAUAAAGCAAAAGUACUAAAAAAGG; test: ITC; conditions: 100 mM KCl, 10 mM MgCl2; 40 mM HEPES pH 7.2, 298 K; 200 µM SAM titrated into 15 µM RNA
[8] = test system: bhmT U47Isocytidine (RNA, riboswitch, isocytidine at U47 (metY numbering; position 44 of strand)) GGGCAGUUGAACCAUAUUGUGCGCCCUGCAUUUGCUUAAGCACUAAAAAGGA; test: ITC; conditions: 100 mM KCl, 10 mM MgCl2; 40 mM HEPES pH 7.2, 298 K; 200 µM SAM titrated into 15 µM RNA
[9] = test system: bhmT U9 4-thiouridine (RNA, riboswitch, 4-thiouridine at U9 (metY numbering; position 7 of strand)) GGGCAGUUGAACCAUAUUGUGCGCCCUGCAUUUGCUUAAGCACUAAAAAGGA; test: ITC; conditions: 100 mM KCl, 10 mM MgCl2; 40 mM HEPES pH 7.2, 298 K; 200 µM SAM titrated into 15 µM RNA
[10] = test system: bhmT U20 4-thiouridine (RNA, riboswitch, 4-thiouridine at U20 (metY numbering; position 18 of strand)) GGGCAGUUGAACCAUAUUGUGCGCCCUGCAUUUGCUUAAGCACUAAAAAGGA; test: ITC; conditions: 100 mM KCl, 10 mM MgCl2; 40 mM HEPES pH 7.2, 298 K; 200 µM SAM titrated into 15 µM RNA
[11] = test system: metY 53 nt (RNA, riboswitch) AGGCGCAUUUGAACUGUAUUGUACGCCUUGCAUAAAGCAAAAGUACUAAAAAA; test: ITC; conditions: 100 mM KCl, 10 mM MgCl2; 40 mM HEPES pH 7.2, 298 K; 200 µM SAM titrated into 15 µM RNA
[12] = test system: bhmT 49 nt (SAM-49) (RNA, riboswitch) GGGCAGUUGAACCAUAUUGUGCGCCCUGCAUUUGCUUAAGCACUAAAAA; test: ITC; conditions: 100 mM KCl, 10 mM MgCl2; 40 mM HEPES pH 7.2, 298 K; 200 µM SAM titrated into 15 µM RNA
[13] = test system: metY 53 nt, 5-bromocytosine (crystallized) (RNA, riboswitch, 5-bromocytidine at 4) AGGCGCAUUUGAACUGUAUUGUACGCCUUGCAUAAAGCAAAAGUACUAAAAAA; test: X-ray crystallography (2.5 Å); conditions: co-crystal, space group P4_122
[14] = 200-250 µM SAH titrated into 15 µM RNA

Row | SMILES | Kd [1] [µM] | Kd [2] [µM] | Kd [3] [µM] | Kd [4] [µM] | Kd [5] [µM] | binding [6] | binding [7] | binding [8] | binding [9] | binding [10] | binding [11] | binding [12] | binding [13] | binding [1, 14] | binding [2, 14]
1 | C[S+](CC[C@H](N)C(=O)O)C[C@H]1O[C@@H](n2cnc3c(N)ncnc32)[C@H](O)[C@@H]1O (stereo partly drawn) | 4.37 ± 0.21 | 0.50 ± 0.08 | 14.7 ± 1.8 | 0.90 ± 0.10 | 16.8 ± 2.6 | weak | no | no | no | weak | no | no | yes |  | 
2 | Nc1ncnc2c1ncn2[C@@H]1O[C@H](CSCC[C@H](N)C(=O)O)[C@@H](O)[C@H]1O |  |  |  |  |  |  |  |  |  |  |  |  |  | no | no
